Measured values published in patent USRE38828E1, “Parevins and tachytegrins” (IntraBiotics Pharmaceuticals, Inc., priority 1995, dated 2005).
In brackets after ≈: the same amount, converted by molar mass. Bridge positions count the residues as written; N and C are the ends. Square brackets hold non-standard residues; d marks the D form. Ends that are not written are not given here. Peptide text beside a SMILES is read from it. Sar = CNCC(=O)O

Experiments:
E. coli = type: cell-based
Experimental: (§1) The radial diffusion assay in agarose gels is conducted using radiodiffusion and gel overlay techniques as described by Lehrer, R. I. et al. J Immunol Meth (1991) 137:167-173. […] In some cases, the underlay was supplemented with 100 mM NaCl. The units of activity in the radial diffusion assay were measured as described; 10 units correspond to a 1 mm diameter clear zone around the sample well. FIGS. 1-6 show the results against five test organisms in units described as above. A synthetic protegrin (PG-1) containing two cystines (sPG-1) or PG-1 in linear form were used as controls.
(§2) Several illustrative tachytegrins were synthesized as described in Example 1 and tested for activity against Staphylococcus aureus (MRSA), Pseudomonas (Psa), VREF, Candida and E. coli as described in Example 2. The results shown in Table 1 as minimal inhibitory concentration (MIC) in ug/ml were obtained with the C-terminal amidated forms except for the last two which were tested as the free acids, as indicated by *. In all peptides in Table 1, X is MeGly.

[1] = test system: Staphylococcus aureus (MRSA); type: cell-based
Experimental: as §1, §2

Pseudomonas (Psa) = assay: minimal inhibitory concentration, Pseudomonas; type: cell-based; conditions: C-terminal amidated forms except * (free acids)
Experimental: as §1, §2

VREF = type: cell-based
Experimental: as §1, §2

E. coli ML-35p = assay: radial diffusion assay in agarose gels, E. coli; type: cell-based
Experimental: Media for testing antimicrobial activity are designed to mimic certain specific conditions. The standard buffer medium, medium A, uses an underlay agar with the following composition: 0.3 mg/ml of trypticase soy broth powder, 1% w/v agarose and 10 mM sodium phosphate buffer (final pH 7.4). This will be designated either “medium A” or “standard in vitro conditions” herein.
A second medium contains 100 mM NaCl in order to mimic the salt levels in blood and tissue fluids. This will be designated “medium B” or “salt medium” herein.
as §1

[2] = test system: T. vaginallis strain C1 (ATCC 30001); assay: Trichomonas vaginalis motility, lysis and growth; type: cell-based, Trichomonas vaginallis
Experimental: For Trichomonas vaginallis, strain C1 (ATCC 30001) is grown as described by Gorrell, T. E. et al., Carlsberg Res Comm (1984) 49:259-268. […] Soon thereafter, the organisms become permeable to trypan blue, and, over the ensuing 15-30 minutes, lyse. As expected, such organisms fail to grow when introduced into their customary growth medium (Diamond's medium).

[3] = FIG. 1, E. coli, in the absence of salt
[4] = FIG. 1, E. coli, in the presence of 100 mM NaCl
[5] = FIG. 4, E. coli ML-35p, in the absence of salt
[6] = FIG. 4, E. coli ML-35p, in the presence of 100 mM NaCl

With `CC(C)C[C@@H]1NC(=O)[C@@H](NC(=O)[C@H](Cc2ccccc2)NC(=O)CNC(=O)[C@@H](N)CCCNC(=N)N)CSSC[C@@H](C(=O)N[C@H](C(=O)N[C@@H](CCCNC(=N)N)C(N)=O)C(C)C)NC(=O)[C@H](Cc2ccccc2)NC(=O)[C@H](CCCNC(=N)N)NC(=O)[C@H](C(C)C)NC(=O)[C@H]([C@@H](C)O)NC(=O)[C@H](Cc2ccccc2)NC(=O)[C@H](CCCNC(=N)N)NC(=O)[C@@H]2CCCN2C(=O)[C@H](C(C)C)NC(=O)[C@H]([C@@H](C)O)NC(=O)[C@H](Cc2ccc(O)cc2)NC(=O)[C@H](CCCNC(=N)N)NC1=O` [RGFCLRYTVPRFTVRFCVR] (H-RGFCLRYTVPRFTVRFCVR-NH2; disulfide 4-17; N-terminus assumed) the “minimal inhibitory concentration (MIC) E. Coli” value (E. coli) was 0.99 µg/mL (≈ 0.417 µM), the “minimal inhibitory concentration (MIC) MRSA” value [1] was 1.88 µg/mL (≈ 0.792 µM) and the “minimal inhibitory concentration (MIC) Paa” value (Pseudomonas (Psa)) was 0.57 µg/mL (≈ 0.24 µM).

For `CC(C)C[C@@H]1NC(=O)[C@@H](NC(=O)CNC(=O)CNC(=O)[C@@H](N)CCCNC(=N)N)CSSC[C@@H](C(=O)N[C@@H](CCCNC(=N)N)C(=O)O)NC(=O)[C@H](C(C)C)NC(=O)[C@H](CCCNC(=N)N)NC(=O)[C@H](C(C)C)NC(=O)[C@H](C)NC(=O)[C@H](Cc2ccccc2)NC(=O)[C@H](CCCNC(=N)N)NC(=O)CNC(=O)[C@H](C(C)C)NC(=O)[C@H](C)NC(=O)[C@H](Cc2ccc(O)cc2)NC(=O)[C@H](CCCNC(=N)N)NC1=O` [RGGCLRYAVGRFAVRVCR] (H-RGGCLRYAVGRFAVRVCR-OH; disulfide 4-17; N-terminus assumed), the “minimal inhibitory concentration (MIC) MRSA” value [1] was greater than 32 µg/mL and the “minimal inhibitory concentration (MIC) VREF” value (VREF) was 5.3 µg/mL (≈ 2.6 µM).

In the case of `CC(C)C[C@@H]1NC(=O)[C@@H](NC(=O)[C@H](Cc2ccccc2)NC(=O)CNC(=O)[C@@H](N)CCCNC(=N)N)CSSC[C@@H](C(=O)N[C@@H](CCCNC(=N)N)C(N)=O)NC(=O)[C@H](C(C)C)NC(=O)[C@H](Cc2ccccc2)NC(=O)[C@H](CCCNC(=N)N)NC(=O)[C@H](C(C)C)NC(=O)CN(C)C(=O)[C@H](Cc2ccccc2)NC(=O)[C@H](CCCNC(=N)N)NC(=O)CNC(=O)[C@H](C(C)C)NC(=O)CN(C)C(=O)[C@H](Cc2ccc(O)cc2)NC(=O)[C@H](CCCNC(=N)N)NC1=O` [RGFCLRYXVGRFXVRFVCR] (H-RGFCLRY[Sar]VGRF[Sar]VRFVCR-NH2; disulfide 4-18 (inferred); N-terminus assumed), the “minimal inhibitory concentration (MIC) MRSA” value [1] is reported as greater than 54 µg/mL.

With `CC(C)C[C@@H]1NC(=O)[C@@H](NC(=O)CNC(=O)CNC(=O)[C@@H](N)CCCNC(=N)N)CSSC[C@@H](C(=O)N[C@@H](CCCNC(=N)N)C(N)=O)NC(=O)[C@H](C(C)C)NC(=O)[C@H](CCCNC(=N)N)NC(=O)[C@H](C(C)C)NC(=O)[C@H](C)NC(=O)[C@H](Cc2ccccc2)NC(=O)[C@H](CCCNC(=N)N)NC(=O)[C@@H]2CCCN2C(=O)[C@H](C(C)C)NC(=O)[C@H](C)NC(=O)[C@H](Cc2ccc(O)cc2)NC(=O)[C@H](CCCNC(=N)N)NC1=O` [RGGCLRYAVPRFAVRVCR] (H-RGGCLRYAVPRFAVRVCR-NH2; disulfide 4-17; N-terminus assumed) the “minimal inhibitory concentration (MIC) MRSA” value [1] was greater than 128 µg/mL and the “minimal inhibitory concentration (MIC) Paa” value (Pseudomonas (Psa)) was 0.05 µg/mL (≈ 0.0241 µM).

In the case of “tachytegrin: tachytegrin with disulfide bridges C4-C17 and C8-C13 (RGGCRLYCRRRFCVVGCR; disulfide 8-13, 4-17)”, the “antibacterial activity, radial diffusion (effectiveness)” value (from here on “antibacterial activity”) (E. coli ML-35p; [3]) is reported as “slightly more effective than sPG-1 although slightly less effective than linear PG-1” and the “antibacterial activity” value (E. coli ML-35p; [4]) is reported as “comparably effective”.

For “cis-parevin: parevin with disulfide bridges C5-C8 and C13-C16 (RGGRCLYCRRRFCIVCG; disulfide 13-16, 5-8)”, the “antibacterial activity” value (E. coli ML-35p; [5]) was “comparably effective in the absence of salt and both were more effective than sPG-1” and the “antibacterial activity” value (E. coli ML-35p; [6]) was “maintained their effectiveness and were comparable”.

With `CC(C)C[C@@H]1NC(=O)[C@@H](NC(=O)CNC(=O)CNC(=O)[C@@H](N)CCCNC(=N)N)CSSC[C@@H](C(=O)N[C@@H](CCCNC(=N)N)C(N)=O)NC(=O)[C@H](C(C)C)NC(=O)[C@H](CCCNC(=N)N)NC(=O)[C@H](C(C)C)NC(=O)[C@H](C)NC(=O)[C@H](Cc2ccccc2)NC(=O)[C@H](CCCNC(=N)N)NC(=O)CN(C)C(=O)[C@H](CCCNC(=N)N)NC(=O)[C@H](C)NC(=O)[C@H](Cc2ccc(O)cc2)NC(=O)[C@H](CCCNC(=N)N)NC1=O` [RGGCLRYARXRFAVRVCR] (H-RGGCLRYAR[Sar]RFAVRVCR-NH2; disulfide 4-17 (inferred); N-terminus assumed) the “minimal inhibitory concentration (MIC) MRSA” value [1] was greater than 32 µg/mL and the “minimal inhibitory concentration (MIC) Paa” value (Pseudomonas (Psa)) was 5.7 µg/mL (≈ 2.7 µM).

For `CC(C)C[C@@H]1NC(=O)[C@@H](NC(=O)[C@H](Cc2ccccc2)NC(=O)CNC(=O)[C@@H](N)CCCNC(=N)N)CSSC[C@@H](C(=O)N[C@H](C(=O)N[C@@H](CCCNC(=N)N)C(=O)O)C(C)C)NC(=O)[C@H](Cc2ccccc2)NC(=O)[C@H](CCCNC(=N)N)NC(=O)[C@H](C(C)C)NC(=O)CN(C)C(=O)[C@H](Cc2ccccc2)NC(=O)[C@H](CCCNC(=N)N)NC(=O)CNC(=O)[C@H](C(C)C)NC(=O)CN(C)C(=O)[C@H](Cc2ccc(O)cc2)NC(=O)[C@H](CCCNC(=N)N)NC1=O` [RGFCLRYXVGRFXVRFCVR] (H-RGFCLRY[Sar]VGRF[Sar]VRFCVR-OH; disulfide 4-17 (inferred); N-terminus assumed), the “minimal inhibitory concentration (MIC) MRSA” value [1] was greater than 32 µg/mL and the “minimal inhibitory concentration (MIC) VREF” value (VREF) was 12 µg/mL (≈ 5.28 µM).

With “PG-1: protegrin PG-1 (RGGRLCYCRRRFCVCVGR; ends and bridges not checked; also: two disulfide bonds, pairing not given here; UniProt P32194 131-148, looked up)” the “motility of T. vaginallis” value ([2]; 50 ug/ml, RPMI+1% heat-activated fetal calf serum, within a few minutes after exposure) was “becomes stationary”, the “lysis of T. vaginallis” value ([2]; 50 ug/ml, over the ensuing 15-30 minutes) was “lyse” and the “growth of exposed organisms in Diamond's medium” value ([2]; after exposure to 50 ug/ml) was “fail to grow”.

With “trans-parevin: parevin with disulfide bridges C5-C16 and C8-C13 (RGGRCLYCRRRFCVVCGR; disulfide 8-13, 5-16)” the “antibacterial activity” value (E. coli ML-35p; [3]) was “slightly more effective than sPG-1 although slightly less effective than linear PG-1”, the “antibacterial activity” value (E. coli ML-35p; [4]) was “comparably effective” and the “antibacterial activity” value (E. coli ML-35p; [5]) was “comparably effective in the absence of salt and both were more effective than sPG-1”. The “antibacterial activity” value (E. coli ML-35p; [6]) was “maintained their effectiveness and were comparable”.

In the case of “PG-3: protegrin PG-3 (RGGGLCYCRRRFCVCVGR; ends and bridges not checked; cysteine pairing not given here; UniProt P32196 131-148, looked up)”, the “motility of T. vaginallis” value ([2]; 25 ug/ml) is reported as “retain their motility”.
